This note sets out measurements from patent US20190119282A1, “IMIDAZOPYRIDAZINES USEFUL AS INHIBITORS OF THE PAR-2 SIGNALING PATHWAY” (Vertex Pharmaceuticals Incorporated, priority 2013, published 2019).

In one data set the test system is TNBS-induced colitis. Nature of the data set: Mouse TNBS-induced colitis model. The format is in vivo, BALB/c mice. As to conditions: mice. The procedure:
(§1) Male Sprague Dawley rats and BALB/c mice were housed in groups in a temperature controlled room and were acclimatized in the animal facility for at least three days prior to use. Experiments were performed during the light phase of the cycle. Animals have food and water ad libitum.
Example 65: Mouse TNBS-Induced Colitis Model
Colitis was induced by intra-colonic administration of 1.5 mg of TNBS in 75 μl of 40% v/volume ethanol solution under isoflurane anesthesia at a depth of 4 cm from the anal verge. Mice were kept with their heads down for 30 additional seconds post administration to ensure distribution of TNBS. Disease activity scores were assessed for a period of 5 days starting prior to TNBS injection (baseline reading). […] Test compounds or vehicle (0.5% MC/0.1% SDS) were systemically administered at the indicated doses in a volume of 10 mL/kg each day for 5 days and starting 1 day before TNBS.
(§2) Data are expressed as the mean % effect. Statistical significance was assessed using t-test for comparison between naive and inflamed rats, and one-way ANOVA followed by post-hoc comparison test for overall drug effectiveness. A difference between groups is considered significant with a p value of <0.05. *, p<0.05; **, p<0.01; ***, p<0.001 vs. vehicle.

Data set [1] addresses T1, PAR2 (HT-29 cells, SLIGKV activation) (Homo sapiens, UniProt P55085).
T1 construct: host or cells: HT-29 cells
T1 sequence (P55085 26-397): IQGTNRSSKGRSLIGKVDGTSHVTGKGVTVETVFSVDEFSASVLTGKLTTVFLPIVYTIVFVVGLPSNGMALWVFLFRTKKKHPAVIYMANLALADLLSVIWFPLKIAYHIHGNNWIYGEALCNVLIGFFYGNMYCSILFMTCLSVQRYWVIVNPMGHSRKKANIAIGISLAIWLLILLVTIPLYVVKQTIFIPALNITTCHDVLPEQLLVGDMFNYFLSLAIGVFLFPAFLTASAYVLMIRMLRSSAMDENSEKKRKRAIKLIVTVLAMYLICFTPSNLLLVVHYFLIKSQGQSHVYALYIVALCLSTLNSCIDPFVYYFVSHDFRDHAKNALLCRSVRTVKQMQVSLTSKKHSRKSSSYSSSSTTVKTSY
Nature of the data set: Ca FLIPR TETRA assay, ANTAGONIST mode, stimulation with 8 μM SLIGKV. The class given is cell-based. Particulars: HT-29 cells, antagonist mode, stimulation with 8 μM SLIGKV. The essentials:
(§3)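 Antagonist-mode assay: dye-loaded HT-29 cells, compound 30 min at r.t., then stimulated with final 8 μM SLIGKV, 3.1 U/mL trypsin, 1 U/mL thrombin or 0.6 μM UTP; calcium fluorescence read.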

Data set [2] concerns tryptase-induced mechanical hypersensitivity. Nature of the data set: Rat tryptase-induced mechanical hypersensitivity model. The format is in vivo, Sprague Dawley rats. As to conditions: for % inhibition of tryptase-induced nociception: given 3-18 h before the tryptase challenge; for % inhibition of an established tryptase-induced nociception: given 30 minutes post tryptase challenge. The procedure:
as §1
Example 64: Rat Tryptase-Induced Mechanical Hypersensitivity Model
Peripheral sensitization was induced by intra-dermal administration of 500 ng of tryptase in a volume of 10 ul PBS under isoflurane anesthesia. Rats were then placed on a wire mesh grid in separate compartments and allowed to acclimatize before testing. Mechanical hypersensitivity was assessed 30 min after tryptase injection using calibrated von Frey filaments applied perpendicular to the plantar surface of the affected paw using the up-and-down method. Test compounds or vehicle (0.5% MC/0.1% SDS) were systemically administered at doses indicated in a volume of 5 mL/kg 3-18 h before the tryptase challenge (Table 11) or 30 minutes post tryptase challenge (Table 12).
as §2

The test system of data set [3] is UTP-stimulated Ca2+ response in HT-29 cells. In words: Ca FLIPR TETRA assay, ANTAGONIST mode, stimulation with 0.6 μM UTP. The class given is cell-based, human. As to conditions: Homo sapiens; HT-29 cells, antagonist mode, stimulation with 0.6 μM UTP. Summed up: as §3
Data set [4] is described as follows: In vivo rat pharmacokinetics (intravenous and oral). As to conditions: plasma; for clearance: intravenous 0.5 to 1 mg/kg, read-out: Clp; for Vd: intravenous, read-out: Vss; for bioavailability: oral by gavage; for half-life: read-out: T ½ (converted). As for the experimental part: Example 61: Protocol for Testing PAR2 Compounds In Vivo Rat Pharmacokinetics Experiments
Compounds delivered by intravenous route were formulated using a solution formulation consisting of 5% N-methylpyrrolidone 10% Vitamin E-TPGS and 85% water (v/v/) or a solution formulation consisting of 25% N-methylpyrrolidone 35% polyethylene glycol 400 and 40% water (v/v/). Intravenous formulations were administered by a bolus injection (over approximately 10 seconds) using a hypodermic needle attaches to a syringe (tail vein). The dose volume was varied from 1 to 2 mL/kg and the dose was varied from 0.5 to 1 mg/kg. Compounds delivered orally were formulated as a solution formulation consisting of 5% N-methylpyrrolidone 10% Vitamin E-TPGS and 85% water (v/v/) or as fine suspension using a cellulose derivative suspending agent with or without the addition of a wetting agent/surfactant. Milling of large particles was performed as needed to reduce particle size using focused electroacoustic milling, homogenization or low energy media milling. A spray-dried solid dispersion was prepared for key compounds using 1:1 combination with cellulose derivatives. Test compounds were administered orally by gavage using a gavage plastic needle attached to a syringe. The dose volume was varied from 5 to 10 mL/kg and the dose was varied from 1 to 600 mg/kg.
Rats were bled by venipuncture (jugular vein) and the samples were collected into tubes containing K3EDTA. The tubes were placed on wet ice until processed. The samples were centrifuged for approximately 10 minutes (at approximately 4° C.) within approximately 30 minutes of collection to prepare plasma or diluted in citrate buffer (1:3) and stored frozen (approximately −30° C.). Thawed plasma or whole blood samples were extracted by protein precipitation using an organic solvent followed by centrifugation. The supernatants were separated by high-performance liquid chromatography coupled to mass spectrometry detection. A calibration curve was prepared using reference standard compounds spiked into either blank plasma or whole blood matrices and extracted similarly to unknown samples. Pharmacokinetic parameters were calculated using non-compartmental analysis.

The target of data set [5] is T2, PAR2 (HT-29 cells, trypsin activation) (Homo sapiens, UniProt P55085).
T2 construct: host or cells: HT-29 cells
T2 sequence (P55085 26-397): T1 sequence (P55085 26-397)
In words: Ca FLIPR TETRA assay, ANTAGONIST mode, stimulation with 3.1 U/mL trypsin. The format is cell-based. Particulars: HT-29 cells, antagonist mode, stimulation with 3.1 U/mL trypsin. Summed up: as §3

For data set [6], the system named is Thrombin-stimulated Ca2+ response in HT-29 cells. In words: Ca FLIPR TETRA assay, ANTAGONIST mode, stimulation with 1 U/mL Thrombin. The class given is cell-based, human. Particulars: Homo sapiens; HT-29 cells, antagonist mode, stimulation with 1 U/mL Thrombin. The essentials: as §3
Data set [7] deals with carrageenan-induced paw edema. Nature of the data set: Rat carrageenan-induced paw edema model. The class given is in vivo, Sprague Dawley rats. As to conditions: for % inhibition of an established carrageenan induced rat paw edema: given 2 hours post carrageenan challenge; for % inhibition of carrageenan induced paw edema: given before carrageenan challenge. The procedure:
as §1
Example 63: Rat Carrageenan-Induced Paw Edema Model
Peripheral inflammation was induced by intra-plantar administration of 100 ul of a 1% w/volume (in saline) carrageenan solution under isoflurane anesthesia. The degree of swelling was assessed using the plethysmometer at 2-3-4-5-6 h after carrageenan injection. Test compound or vehicle (0.5% MC/0.1% SDS) was systemically administered at the indicated doses in a volume of 5 mL/kg either I-3 hour before carrageenan challenge (Table 9) or 2 hours post carrageenan challenge (Table 10).
as §2
For orientation: In the carrageenan paw model, swelling and tenderness develop within hours.

One may read the IC50 as the concentration that inhibits the measured activity by half. Broadly, the bioavailability is the share of a dose that reaches the circulation, judged against a reference dose that is usually intravenous.

Each structure is given as a SMILES string. Marks after values point to notes of the source that are not given here.

Regarding `CC(C)(C)c1cc(-c2ccc(F)cc2)nn2cc(C(=O)N3CCNC(=O)C3(C)C)nc12` [Compound I-191, 4-(8-(tert-butyl)-6-(4-fluorophenyl)imidazo[1,2-b]pyridazine-2-carbonyl)-3,3-dimethylpiperazin-2-one], the entries for the “% improvement in Disease activity scores” value with TNBS-induced colitis (dose 15 mg/kg each day for 5 days starting 1 day before TNBS) and with TNBS-induced colitis (dose 50 mg/kg each day for 5 days starting 1 day before TNBS) were 21** % and 36*** %, respectively. The 50% inhibitory concentration (IC50) in data set [1] was 1.4 nM; in data set [3], 440 nM; in data set [5], 2.3 nM; in data set [6] it was 320 nM. Also, the “% inhibition of tryptase-induced nociception” value in data set [2] (dose 1 mg/kg) is on record as 26%; in data set [2] (dose 3 mg/kg) it was 36%; in data set [2] (dose 10 mg/kg), 40** %. For the same molecule, the clearance in data set [4] was 0.7 mL/min/kg. Moreover, the Vd in data set [4] came to 3.2 L/kg. Moreover, in data set [4], the bioavailability amounted to 66%. Also, the half-life in data set [4] was 56.9 h. Further, the “% inhibition of an established carrageenan induced rat paw edema” value in data set [7] (dose 0.6 mg/kg) is reported as 26%; in data set [7] (dose 2 mg/kg) it was 40* %; in data set [7] (dose 3 mg/kg), 46*** %; in data set [7] (dose 6 mg/kg), 48* %; in data set [7] (dose 10 mg/kg), 50*** %; in data set [7] (dose 30 mg/kg) it was 57*** %.
Regarding `CC(C)(C)c1cc(-c2ccc(F)cc2)nn2cc(C(=O)N3CCN(C(=O)c4ccn[nH]4)CC3(C)C)nc12` [Compound I-201], the half-inhibitory concentration (IC50) in data set [1] is 0.7 nM; in data set [3], 560 nM; in data set [5], 0.9 nM; in data set [6], 370 nM. The entries for the “% inhibition of tryptase-induced nociception” value in data set [2] (dose 5 mg/kg) and in data set [2] (dose 15 mg/kg) were 52** % and 65*** %, respectively. Also, the clearance in data set [4] turned out to be 10.9 mL/min/kg. In addition, in data set [4], the Vd amounted to 3.3 L/kg. In addition, the bioavailability in data set [4] came out at 55%. Besides, the half-life in data set [4] was 4.3 h. The “% inhibition of carrageenan induced paw edema” value is listed as 55** % in data set [7] (dose 5 mg/kg) and 60*** % in data set [7] (dose 20 mg/kg).
Regarding `Cc1cc(-c2cc(C(C)C)c3nc(C(=O)N4CCNC(=O)C4(C)C)cn3n2)ccc1F` [Compound I-244, 4-[6-(4-fluoro-3-methyl-phenyl)-8-isopropyl-imidazo[1,2-b]pyridazine-2-carbonyl]-3,3-dimethyl-piperazin-2-one], the IC50 in data set [1] was found to be 7.5 nM; in data set [3], 3650 nM; in data set [5], 10.2 nM; in data set [6] it was 3750 nM. Also, the “% inhibition of an established tryptase-induced nociception” value in data set [2] (dose 2 mg/kg) is 21* %; in data set [2] (dose 6 mg/kg) it was 43* %; in data set [2] (dose 20 mg/kg) it was 48* %. Moreover, the clearance in data set [4] came out at 4.8 mL/min/kg. In addition, the Vd in data set [4] came out at 1.6 L/kg. The bioavailability in data set [4] is 70%. The half-life in data set [4] was 5.1 h. Also, the “% inhibition of carrageenan induced paw edema” value is 42** % in data set [7] (dose 2 mg/kg), 51** % in data set [7] (dose 6 mg/kg) and 67*** % in data set [7] (dose 20 mg/kg).
As to `Cc1nnc(C(=O)N2CCN(C(=O)c3cn4nc(C5CCC(F)(F)CC5)cc(C(C)(C)C)c4n3)C(C)(C)C2)[nH]1` [Compound I-448, [8-tert-butyl-6-(4,4-difluorocyclohexyl)imidazo[1,2-b]pyridazin-2-yl]-[2,2-dimethyl-4-(5-methyl-4H-1,2,4-triazole-3-carbonyl)piperazin-1-yl]methanone], in data set [1], the IC50 was found to be 6.9 nM. The half-inhibitory concentration (IC50) in data set [3] came out at 14500 nM. In data set [4], the clearance worked out at 6.44 mL/min/kg, the Vd is 1.84 L/kg, the bioavailability came out at 87% and the half-life was 5.14 h. Besides, in data set [5], the IC50 was 11.4 nM. For the same molecule, the 50% inhibitory concentration (IC50) in data set [6] is 17500 nM. In data set [7] (dose 20 mg/kg), the “% inhibition of carrageenan induced paw edema” value came out at 15%.
